{
  "source": "patent US11339372B2",
  "about": "“Serum-free medium inducing differentiation of umbilical cord mesenchymal stem cell into insulin-secretion-like cell and preparation method and use thereof” (SCLNOW BIOTECHNOLOGY CO., LTD, priority 2016, dated 2022)",
  "tested_on": "Human umbilical cord mesenchymal stem cells",
  "test": "Screening for the content of conophylline in the medium: differentiation induction, cell cluster morphology",
  "format": "cell-based",
  "method": "Media to be tested: 89 parts by volume of DMEM (High Glucose, with 4.5 g/L glucose), 5 parts by volume of serum replacement (SR), 2 parts by volume of B27 (50×), 1 part by volume of ITS, 1 part by volume of non-essential amino acids (NEAA), 1 part by volume of N-2 (100×), and heparin in a final concentration of 1 μg/ml, 10 mmol/L nicotinamide, and recombinant human basic fibroblast growth factor (b-FGF), epidermal growth factor (EGF), hepatocyte growth factor (HGF) and pentagastrin each in a final concentration of 10 ng/ml, and conophylline with a concentration of 1, 10, 50, 100, 200, and 300 ng/ml respectively.\nHuman umbilical cord mesenchymal stem cells were induced to differentiate through being cultured in the above media comprising different concentrations of conophylline respectively.",
  "data": [
    {"smiles": "CC[C@@]12CC(C(=O)OC)=C3Nc4cc5c(cc4[C@@]34CCN(C[C@H]3O[C@H]31)[C@@H]24)[C@@H]1[C@H](O5)[C@@H](O)[C@@]2(CC)CC(C(=O)OC)=C3Nc4c(cc(O)c(OC)c4OC)[C@@]34CCN1[C@@H]24", "note": "[conophylline]", "values": [
      {"measurement": "state of cell clusters", "setting": "medium with 1 ng/ml conophylline", "result": "the maturity of the cell clusters was insufficient"},
      {"measurement": "state of cell clusters", "setting": "medium with 10 ng/ml conophylline", "result": "the maturity of the cell clusters was insufficient"},
      {"measurement": "state of cell clusters", "setting": "medium with 50 ng/ml conophylline", "result": "cell clusters were compact and grew gradually"},
      {"measurement": "state of cell clusters", "setting": "medium with 100 ng/ml conophylline", "result": "cell clusters were compact and grew gradually"},
      {"measurement": "state of cell clusters", "setting": "medium with 200 ng/ml conophylline", "result": "cell clusters were compact and grew gradually"},
      {"measurement": "state of cell clusters", "setting": "medium with 300 ng/ml conophylline", "result": "the differentiated cells had undergone an undirected differentiation"}
    ]}
  ]
}
